Reference: US6825230B2, “Spiro and dispiro 1,2,4-trixolane antimalarials” (Medicines for Malaria Venture MMV, priority 2002, dated 2004)
Values after ≈ are worked out from the molar mass of the structure shown. Structures can show the parent of a compound that is named as a salt. Where two headings read alike, the source gives them in different places.

Assays:
[1] = tested on: Schistosoma mansoni 21-day-old schistosomules; assay: Effect on 21-day-old schistosomules in infected mice; assay type: in vivo; settings: for % reduction of schistosomule growth at day 21 after per os application of 200 mg/kg, FWR (%): female worm reduction rate
Description: Mice were infected with 100 Schistosoma mansoni cercariae on day 21 post-treatment. Each group was treated per os with trioxolanes at a single dose of 200 mg/kg. […] All groups were killed 4 weeks after treatment and the liver and intestine were removed and separated. The liver and intestine were compressed and alive male and female worms could be seen and counted. The effect of the compounds was evaluated by mean total and female worm burden.

[2] = tested on: Schistosoma mansoni adult worms (49-day-old); assay: Effect on adult schistosomes (49-day-old) in infected mice; assay type: in vivo; settings: for % reduction of adult worms growth at day 49 after per os application of 400 mg/kg, TWR (%) / Adult worms day 49, per os 400 mg/kg, DEAD WORM (%): single 400 mg/kg per os
Description: Mice were infected with 100 Schistosoma mansoni cercariae on day 49 post-treatment. Each group was treated per os with OZ compounds at single doses of 200, 400, and 600 mg/kg. Untreated mice served as the control. All groups were killed 4 weeks after treatment and the liver and intestine were removed and separated. The liver and intestine were compressed and alive male and female worms could be seen and counted.

[3] = tested on: ANKA strain of Plasmodium berghei; assay: Single dose ED50/ED90/ED99 determination in infected mice; assay type: in vivo
Description: In the single dose ED50/ED98/ED99 determinations, Moro SPF or NMRI mice (group of three) infected with the ANKA strain of Plasmodium berghei were treated on day one post-infection. […] The SSV consists of 0.5% w/v CMC, 0.5% v/v benzyl alcohol, 0.4% v/v Tween 80, and 0.9% w/v sodium chloride in water. Antimalarial activity was measured by percent reduction in parasitemia on day three post-infection. The ED50/ED90 values were calculated by nonlinear fitting.
The ED50, ED90, and ED99 values were calculated by non-linear fitting with statistical program and were expressed in mg/kg.

[4] = tested on: chloroquine-resistant K1 strain of P. falciparum; assay: In vitro antimalarial semiautomated microdilution assay ([3H]-hypoxanthine incorporation), K1 strain; assay type: cell-based, Plasmodium falciparum; settings: Plasmodium falciparum
In short: (§1)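 Asynchronous stock-culture parasites (intraerythrocytic forms), serial compound dilutions; readout [3H]-hypoxanthine uptake; IC50 via Logit regression.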

[5] = tested on: chloroquine-sensitive NF54 strain of P. falciparum; assay: In vitro antimalarial semiautomated microdilution assay ([3H]-hypoxanthine incorporation), NF54 strain; assay type: cell-based, Plasmodium falciparum; settings: Plasmodium falciparum
In short: as §1

[6] = tested on: ANKA strain of P. berghei; assay: Single dose STI in vivo screen in infected mice; set-up: species or system Plasmodium berghei; settings: for Survival (days) 10 mg/kg po: single 10 mg/kg po in 3% ethanol and 7% Tween 80; for Survival (days) 10 mg/kg po / Survival (days) 10 mg/kg SSV po / Survival (days) 10 mg/kg sc: untreated 6-7 days; for Activity (%) 10 mg/kg po: single 10 mg/kg po in 3% ethanol and 7% Tween 80 on day 1 post-infection; for Survival (days) 10 mg/kg SSV po: single 10 mg/kg po in SSV; for Activity (%) 10 mg/kg SSV po: single 10 mg/kg po in standard suspending vehicle (SSV) on day 1 post-infection; for Survival (days) 10 mg/kg sc: single 10 mg/kg sc in 3% ethanol and 7% Tween 80; for Activity (%) 10 mg/kg sc: single 10 mg/kg sc in 3% ethanol and 7% Tween 80 on day 1 post-infection
[7] = tested on: P. berghei ANKA strain; assay: Divided 3x10 mg/kg vs single 1x30 mg/kg po dose in infected mice; assay type: in vivo, Plasmodium berghei; settings: 10 mg/kg po on days 1, 2, 3 post-infection
Description: (§2) Moro NMRI male mice (Fu Albino specific pathogen free) weighing 18±2 g were infected intravenously (i.v.) with 2×10^7 P. berghei ANKA strain-infected erythrocytes from donor mice on day 0 of the experiment. From donor mice with circa 30% parasitemia, heparinized blood was taken and diluted in physiological saline to 10^8 parasitized erythrocytes per ml. An aliquot (0.2 ml) of this suspension was injected i.v. into experimental and control groups of mice. […] Throughout the experiments, mice were kept in groups of three or five animals in Makrolon type II cages in an air-conditioned animal room at 22 to 23° C.
(§3) They were administered per os (p.o.) in a total volume of 0.01 ml per gram of mouse. The activity of the compound was determined by a variety of methods outlined in subsequent sections. Survival time was also recorded, and survival to day 30 post-infection was considered to be a cure.
The first experiment conducted consisted of administration of a divided 3×10 mg/kg p.o. dose administered on days 1, 2, and 3 post-infection vs. a single 1×30 mg/kg po dose administered on day 1 post-infection. On day 4 post-infection, blood smears of all animals were prepared and stained with Giemsa. […] Compounds were administered orally in the SSV vehicle.

[8] = tested on: P. berghei ANKA strain; assay: Divided 3x3 mg/kg and 3x1 mg/kg po doses in infected mice; assay type: in vivo, Plasmodium berghei; settings: for Activity (%): percent reduction of parasitemia vs control on day 4
Description: as §2, §3
The second experiment consists of administration of divided 3×3 mg/kg and 3×1 mg/kg po doses administered on days 1, 2, and 3 post-infection. On day 4 post-infection, blood smears of all animals were prepared and stained with Giemsa. […] Compounds were administered orally in the SSV vehicle.

[9] = single 200 mg/kg per os, 21-day-old schistosomules
[10] = 49-day-old adults, total worm reduction rate
[11] = percentage of dead worm in the liver
[12] = Plasmodium berghei, single dose po in SSV on day 1 post-infection, parasitemia day 3, nonlinear fitting, read-out: ED50
[13] = single dose po in SSV on day 1 post-infection, parasitemia day 3, nonlinear fitting
[14] = percent reduction in parasitemia on day 3
[15] = K1, 72 h, read-out: IC50 (ng/ml) K1, chloroquine-resistant K1 strain, 72 h incubation
[16] = NF54, 72 h, read-out: IC50 (ng/ml) NF54, chloroquine-sensitive NF54 strain, 72 h incubation
[17] = percent reduction in parasitemia on day 3, 10 mg/kg
[18] = percent reduction in parasitemia on day 3, hydrochloride, 10 mg/kg
[19] = Plasmodium berghei, po, single dose po in SSV on day 1 post-infection, parasitemia day 3, nonlinear fitting
[20] = 3 × 1 mg/kg p.o. SSV on days 1, 2, 3 post-infection
[21] = 3 × 3 mg/kg p.o. SSV on days 1, 2, 3 post-infection

Compound | % reduction of schistosomule growth at day 21 after per os application of 200 mg/kg, FWR (%) [1, 9] | % reduction of adult worms growth at day 49 after per os application of 400 mg/kg, TWR (%) [2, 10] | Adult worms day 49, per os 400 mg/kg, DEAD WORM (%) [2, 11] | ED90 [3, 13] | ED99 [3, 13] | Survival (days) 10 mg/kg po [6] | Activity (%) 10 mg/kg po [6, 14] | Survival (days) 10 mg/kg SSV po [6] | Activity (%) 10 mg/kg SSV po [6, 14] | Survival (days) 10 mg/kg sc [6] | Activity (%) 10 mg/kg sc [6, 14] | IC50 [4, 15] | IC50 [5, 16] | ED50 [3, 19] | also measured
c1ccc(C2CCC3(CC2)OOC2(O3)C3CC4CC(C3)CC2C4)cc1 (centres unmarked) [OZ27] | 58% | 20% | 10% | 5.7 mg/kg | 9.9 mg/kg |  |  |  |  |  |  |  |  |  | % reduction of schistosomule growth at day 21 after per os application of 200 mg/kg, TWR (%) ([1]; po, 200 mg/kg, 504 h): 63%; ED50 [3, 12]: 2.9 mg/kg
c1cn(CC[C@H]2CC[C@]3(CC2)OOC2(O3)C3CC4CC(C3)CC2C4)cn1 (some centres unmarked) [OZ219] |  |  |  |  | 5.2 mg/kg | 8.7 days | 99.89% | 8.0 days | 99.82% | 9.3 days | 99.91% |  |  |  | IC50 ([4]; chloroquine-resistant K1 strain, 72 h incubation, read-out: IC50 (ng/ml) K1): 0.85 ng/mL (≈ 2.37 nM); IC50 ([5]; chloroquine-sensitive NF54 strain, 72 h incubation, read-out: IC50 (ng/ml) NF54): 1.6 ng/mL (≈ 4.46 nM); ED50 [3, 12]: 1.6 mg/kg; ED90 ([3]; po): 3.0 mg/kg
c1ncn(C[C@H]2CC[C@]3(CC2)OOC2(O3)C3CC4CC(C3)CC2C4)n1 (stereo partly drawn) [OZ235, cis-Adamantane-2-spiro-3′-8′-(1′H-1′,2′,4′-triazol-1′-ylmethyl)-1′,2′,4-trioxaspiro[4.5]decane mesylate] |  |  |  | 7.1 mg/kg | 11 mg/kg |  |  |  |  |  |  | 1 ng/mL | 2 ng/mL |  | Survival (days) 10 mg/kg po ([6]; 10 mg/kg): 8.7 days; Activity (%) 10 mg/kg po [6, 17]: 99.92%; Survival (days) 10 mg/kg SSV po ([6]; 10 mg/kg): 9.0 days; Activity (%) 10 mg/kg SSV po [6, 17]: 99.97%; Survival (days) 10 mg/kg sc ([6]; 10 mg/kg): 8.0 days; Activity (%) 10 mg/kg sc [6, 17]: 97%; ED50 [3, 13]: 4.0 mg/kg
c1cn(C[C@H]2CC[C@]3(CC2)OOC2(O3)C3CC4CC(C3)CC2C4)cn1 (some centres unmarked) [OZ179] |  |  |  | 3.3 mg/kg | 6.6 mg/kg |  |  |  |  |  |  | 1.3 ng/mL (≈ 3.77 nM) | 1.1 ng/mL (≈ 3.19 nM) | 1.4 mg/kg | Survival (days) 10 mg/kg po ([6]; hydrochloride, 10 mg/kg): 11.3 days; Activity (%) 10 mg/kg po [6, 18]: 99.91%; Survival (days) 10 mg/kg SSV po ([6]; hydrochloride, 10 mg/kg): 10.3 days; Activity (%) 10 mg/kg SSV po [6, 18]: 99.78%; Survival (days) 10 mg/kg sc ([6]; hydrochloride, 10 mg/kg): 11.3 days; Activity (%) 10 mg/kg sc [6, 18]: 99.91%
O=C(NO)[C@H]1CC[C@@]2(CC1)OOC1(O2)C2CC3CC(C2)CC1C3 (some centres unmarked) [OZ127] |  |  |  | 7.6 mg/kg | 19 mg/kg | 7.0 days | 95% | 7.7 days | 98% | 7.7 days | 97% | 0.61 ng/mL (≈ 1.89 nM) | 1.3 ng/mL (≈ 4.02 nM) | 2.5 mg/kg | 
COCC(=O)N1CCC2(CC1)OOC1(O2)C2CC3CC(C2)CC1C3 (centres unmarked) [OZ113, Adamantane-2-spiro-3′-8′-methoxyacetyl-1′,2′,4′-trioxa-8′-azaspiro[4.5]decane] |  |  |  | 9.0 mg/kg | 19 mg/kg | 7.3 days | 92% | 8.0 days | 96% | 7.3 days | 89% | 0.95 ng/mL (≈ 2.82 nM) | 0.2 ng/mL (≈ 0.593 nM) | 3.6 mg/kg | 
c1cc(OC[C@H]2CC[C@]3(CC2)OO[C@]2(O3)C3CC4CC(C3)CC2C4)ccn1 [OZ301] |  |  |  |  |  |  |  | 11.8 days | 100% |  |  |  |  |  | Survival (days) 3 mg/kg SSV po ([6]; single 3 mg/kg po in SSV): 8.4 days; Activity (%) 3 mg/kg SSV po ([6]; single 3 mg/kg po in SSV, percent reduction in parasitemia on day 3): 97%; Survival (days) 3 × 10 mg/kg p.o. SSV [7]: >30 days; Activity (%) 3 × 10 mg/kg p.o. SSV ([7]; parasitemia reduction on day 4): 100%; Cured infected mice at the 3×3 mg/kg dose ([8]; 3 mg/kg po (SSV) on days 1, 2, 3 post-infection): 1/5; Survival [8, 20]: 8.8 days; Activity (%) [8, 20]: 58%; Survival [8, 21]: 23 days; Activity (%) [8, 21]: 100%
O=C1CCC2(CC1)OOC1(O2)C2CC3CC(C2)CC1C3 (centres unmarked) [OZ05] | 88% | 23% | 32% |  | 15 mg/kg |  |  |  |  |  |  |  |  |  | % reduction of schistosomule growth at day 21 after per os application of 200 mg/kg, TWR (%) ([1]; po, 200 mg/kg, 504 h): 90%; % reduction of adult worms growth at day 49 after per os application of 200 mg/kg, TWR (%) ([2]; single 200 mg/kg per os, 49-day-old adults, total worm reduction rate): 46%; Adult worms day 49, per os 200 mg/kg, DEAD WORM (%) ([2]; single 200 mg/kg per os, percentage of dead worm in the liver): 12%; % reduction of adult worms growth at day 49 after per os application of 600 mg/kg, TWR (%) ([2]; single 600 mg/kg per os, 49-day-old adults, total worm reduction rate): 70%; Adult worms day 49, per os 600 mg/kg, DEAD WORM (%) ([2]; single 600 mg/kg per os, percentage of dead worm in the liver): 58%; ED90 ([3]; po): 12 mg/kg
CC(C)(O)C[C@H]1CC[C@]2(CC1)OOC1(O2)C2CC3CC(C2)CC1C3 (some centres unmarked) [OZ205] | 83% | 0% | 12% | 3.3 mg/kg | 6.0 mg/kg | 10.0 days | 99.96% | 8.7 days | 99.94% | 9.7 days | 99.96% | 1.5 ng/mL (≈ 4.46 nM) | 2 ng/mL (≈ 5.94 nM) | 1.6 mg/kg | % reduction of schistosomule growth at day 21 after per os application of 200 mg/kg, TWR (%) ([1]; single 200 mg/kg per os, 21-day-old schistosomules, total worm reduction rate): 84%
